Assay results from patent US20100113437A1, “Active Compound Combinations Having Insecticidal and regular, utility” (BAYER CROPSCIENCE AG, priority 2006, published 2010).

Assays:
[1] = tested on: Spodoptera frugiperda larvae; experiment: Spodoptera frugiperda larvae test (Example F, spray); format: in vivo; conditions: single active compound
[2] = tested on: Phaedon cochleariae larvae; experiment: Phaedon cochleariae larvae test (Example D, spray); conditions: single active compound
Aphis gossypii = Aphis gossypii test (Example A, cotton leaves dipped); format: in vivo; conditions: single active compound; for Kill in % after 1d: 100 ppm; for Kill in % after 6d: 0.8 ppm
Myzus persicae [3] = experiment: Myzus persicae test (Example C, cabbage leaves sprayed, DMF); format: in vivo; conditions: single active compound
[4] = tested on: Spodoptera frugiperda larvae; experiment: Spodoptera frugiperda larvae test (Example G, leaf dip); format: in vivo; conditions: single active compound; for Kill in % after 2d: 100 ppm; for Kill in % after 3d: 4 ppm
Myzus persicae [5] = experiment: Myzus persicae test (Example B, cabbage leaves sprayed, acetone/DMF); format: in vivo; conditions: single active compound
Plutella xylostella = Plutella xylostella test (Example E, leaf dip); format: in vivo; conditions: 0.8 ppm, single active compound
Tetranychus urticae = experiment: Tetranychus test, OP-resistant/spray treatment (Example H); format: in vivo; conditions: single active compound; for Kill in % after 6d: 0.8 g/ha
Description: Disks of bean leaves (Phaseolus vulgaris) which are infested by all stages of the greenhouse red spider mite (Tetranychus urticae) are sprayed with an active compound preparation of the desired concentration.
After the desired period of time, the activity in % is determined.

## N#Cc1ccc(CC(=NNC(=O)Nc2ccc(OC(F)(F)F)cc2)c2cccc(C(F)(F)F)c2)cc1 (mixture of isomers) [metaflumizone]
[1]; 20 g/ha
  Kill in % after 6d: 83%
[2]; 100 g/ha
  Kill in % after 6d: 0%

## CNC(=O)c1cc(Cl)cc(C)c1NC(=O)c1cc(Br)nn1-c1ncccc1Cl [Rynaxapyr]
Aphis gossypii
  Kill in % after 1d: 75%
Myzus persicae [3]; 4 ppm
  Kill in % after 1d: 35%
[1]; 0.8 g/ha
  Kill in % after 2d: 67%

## CO[C@H]1CC[C@]2(CC1)NC(=O)C(c1cc(C)ccc1C)=C2O [compound (I)]
Aphis gossypii
  Kill in % after 1d: 0%
Myzus persicae [3]; 4 ppm
  Kill in % after 1d: 0%
Myzus persicae [3]; 20 ppm
  Kill in % after 1d: 15%
[4]
  Kill in % after 2d: 0%

## CCOC(=O)OC1=C(c2cc(C)ccc2C)C(=O)N[C@]12CC[C@@H](OC)CC2 [compound (II)]
Aphis gossypii
  Kill in % after 6d: 0%
Myzus persicae [5]; 20 g/ha
  Kill in % after 1d: 10%
Myzus persicae [5]; 100 g/ha
  Kill in % after 1d: 10%
Plutella xylostella
  Kill in % after 6d: 10%
[1]; 0.16 g/ha
  Kill in % after 6d: 0%
[1]; 0.8 g/ha
  Kill in % after 6d: 0%
[1]; 4 g/ha
  Kill in % after 2d: 0%
[1]; 20 g/ha
  Kill in % after 2d: 0%
  Kill in % after 6d: 0%
[4]
  Kill in % after 3d: 0%
Tetranychus urticae
  Kill in % after 6d: 50%
Tetranychus urticae; 20 g/ha
  Kill in % after 2d: 10%
Tetranychus urticae; 100 g/ha
  Kill in % after 2d: 20%
[2]; 20 g/ha
  Kill in % after 6d: 17%
[2]; 100 g/ha
  Kill in % after 6d: 50%

## CCOC(=O)OC1=C(c2cc(C)ccc2C)C(=O)NC12CCC(OC)CC2 (centres unmarked) [compound (IIa)]
Aphis gossypii
  Kill in % after 6d: 0%
Myzus persicae [5]; 20 g/ha
  Kill in % after 1d: 0%
Myzus persicae [5]; 100 g/ha
  Kill in % after 1d: 0%
Plutella xylostella
  Kill in % after 6d: 80%
[1]; 0.16 g/ha
  Kill in % after 6d: 0%
[1]; 0.8 g/ha
  Kill in % after 6d: 0%
[1]; 4 g/ha
  Kill in % after 2d: 0%
[1]; 20 g/ha
  Kill in % after 2d: 0%
  Kill in % after 6d: 0%
[4]
  Kill in % after 3d: 0%
Tetranychus urticae
  Kill in % after 6d: 60%
Tetranychus urticae; 20 g/ha
  Kill in % after 2d: 0%
Tetranychus urticae; 100 g/ha
  Kill in % after 2d: 10%
[2]; 20 g/ha
  Kill in % after 6d: 0%
[2]; 100 g/ha
  Kill in % after 6d: 67%

## COC1CCC2(CC1)NC(=O)C(c1cc(C)ccc1C)=C2O (centres unmarked) [compound (Ia)]
Aphis gossypii
  Kill in % after 1d: 0%
Myzus persicae [3]; 4 ppm
  Kill in % after 1d: 0%
Myzus persicae [3]; 20 ppm
  Kill in % after 1d: 10%
[4]
  Kill in % after 2d: 0%

## CC[S+]([O-])c1c(C#N)nn(-c2c(Cl)cc(C(F)(F)F)cc2Cl)c1N (centres unmarked) [ethiprole]
Tetranychus urticae; 20 g/ha
  Kill in % after 2d: 20%

## N#Cc1nn(-c2c(Cl)cc(C(F)(F)F)cc2Cl)c(N)c1[S+]([O-])C(F)(F)F (centres unmarked) [fipronil]
Myzus persicae [5]; 20 g/ha
  Kill in % after 1d: 20%
Myzus persicae [3]; 20 ppm
  Kill in % after 1d: 10%
Tetranychus urticae
  Kill in % after 6d: 0%

## Cc1cc(C(F)(C(F)(F)F)C(F)(F)F)ccc1NC(=O)c1cccc(I)c1C(=O)NC(C)(C)CS(C)(=O)=O [flubendiamide]
[1]; 0.8 g/ha
  Kill in % after 6d: 50%

## O=C(NC(=O)c1c(F)cccc1F)Nc1ccc(Oc2ccc(C(F)(F)F)cc2Cl)cc1F [flufenoxuron]
[1]; 0.16 g/ha
  Kill in % after 6d: 83%
[2]; 20 g/ha
  Kill in % after 6d: 50%

## O=C(NC(=O)c1c(F)cccc1F)Nc1cc(Cl)c(OC(F)(F)C(F)C(F)(F)F)cc1Cl (centres unmarked) [lufenuron]
[1]; 20 g/ha
  Kill in % after 2d: 50%
[4]
  Kill in % after 2d: 40%
[2]; 20 g/ha
  Kill in % after 6d: 83%

## O=C(NC(=O)c1ccccc1Cl)Nc1ccc(OC(F)(F)F)cc1 [triflumuron]
Myzus persicae [5]; 100 g/ha
  Kill in % after 1d: 0%
Tetranychus urticae; 100 g/ha
  Kill in % after 2d: 0%

## emamectin benzoate
Aphis gossypii
  Kill in % after 6d: 15%
